Results from patent publication US9409895B2, “Autotaxin inhibitors” (Novartis AG, priority 2012, dated 2016).
Read-outs that look alike come from different tables or passages of the source.

Target: Recombinant human ATX (Homo sapiens (Human), UniProt Q13822)
Test: ATX inhibition assay (released choline, choline oxidase/HRP/Amplex Red fluorescence)
Format: biochemical
Protocol: LPC (oleoyl (18:1)) was purchased from Avant: Polar Lipids (Alabaster, Ala.) and solubilized in methanol to 20 mM. Amplex Red was obtained from Invitrogen Life Technologies (Paisley, UK) and dissolved in DMSO to 10 mM. Choline oxidase and horseradish peroxidase (HRP) were obtained from Sigma Aldrich (Dorset, UK) and dissolved in HBSS to 20 U/ml and 200 U/ml respectively. AH reagents were stored at −20° C. in single use aliquots. All experimental measurements were performed in assay buffer made up immediately prior to use (HBSS, 0.01% BSA essentially fatty acid free).
Recombinant human ATX was prepared at Novartis (Basel, CH) in a human embryonic kidney (HEK) cell preparation, and stored in single use aliquots of […] (26 μM) stocks stored at −80° C.
All experimental measurements were performed in black 384 well polystyrene (low volume, round bottom, Corning (3676)) plates. PerkinElmer EnVision (Fluorescence Intensity/Absorbance Monochromator) or Tecan Infinite 200 PRO series plate reader was used to detect change in fluorescent intensity.
ATX activity was determined by measurement of released choline in reactions containing ATX (10 nM), choline oxidase (0.1 U/ml), HRP (100 U/ml), amplex red (50 μM) and LPC 18:1 (10 μM). Compounds of the invention were prepared as 10 point serial dilutions from 1 μM in duplicate and pre-incubated with ATX at 37° C. for 20 minutes prior to the addition of remaining reagents. The liberated choline was measured from changes in fluorescence intensity (λex 530 nm, λem 590 nm) of the product resurofin at 37° C. every 2 minutes over a 40-minute period. ATX activity was measured as a slope of the linear portion of the progress curve, typically between 14 to 24 minutes.
Slope data was exported to Graphpad prism (Graphpad software, San Diego, Calif.) where data was fitted to equation 1. Y=Bottom+(Top−Bottom)/(1+10^((Log IC50−X)*HillSlope)) Equation 1: […]

IC50 (ATX 10 nM, LPC 18:1 10 μM, 37° C., 20 min pre-incubation, mean of n 2) [µM]	Compound	IC50 [µM]
1	CN(CCC1CCN(C(=O)OCc2cc(Cl)cc(C#N)c2)CC1)C(=O)c1c[nH]nn1 [Example 36, 3-Chloro-5-cyanobenzyl 4-(2-(N-methyl-1H-1,2,3-triazole-4-carboxamido)ethyl)piperidine-1-carboxylate]	
	(S)-3,5-Dichlorobenzyl 3-(4-(1H-1,2,3-triazol-4-yl)butanamido)pyrrolidine-1-carboxylate or (R)-3,5-Dichlorobenzyl 3-(4-(1H-1,2,3-triazol-4-yl)butanamido)pyrrolidine-1-carboxylate [Example 49b]	0.263
	(S)-3,5-Dichlorobenzyl 3-(4-(1H-1,2,3-triazol-4-yl)butanamido)pyrrolidine-1-carboxylate or (R)-3,5-Dichlorobenzyl 3-(4-(1H-1,2,3-triazol-4-yl)butanamido)pyrrolidine-1-carboxylate [Example 49a]	> 1
